Here are results for 22 molecules from patent USRE47302E1 (ONYX THERAPEUTICS INC., priority 2013, dated 2019).

This data set can be described thus: Solubility pH 7. The conditions noted are these: pH 7, aqueous buffer.

The structures appear in SMILES notation. Values after ≈ are worked out from the molar mass of the structure shown.

Consider `C[C@H](NC(=O)CN1CCOCC1)C(=O)N[C@@H](Cc1ccc2c(c1)CCS(=O)(=O)N2)C(=O)N[C@@H](CC1CCCC1)C(=O)[C@@]1(C)CO1` [Compound C-1102, (S)-N-((S)-3-cyclopentyl-1-((R)-2-methyloxiran-2-yl)-1-oxopropan-2-yl)-3-(2,2-dioxido-3,4-dihydro-1H-benzo[c][1,2]thiazin-6-yl)-2-((S)-2-(2-morpholinoacetamido)propanamido)propanamide], for which the solubility was determined as 3410 µg/mL (≈ 5260 µM).

As to `COc1ccc(C[C@H](NC(=O)[C@@H](NC(=O)CN2CCOCC2)C2CC2)C(=O)N[C@@H](CC2CCCC2)C(=O)[C@@]2(C)CO2)cc1` [Compound C-1107, (S)-N-((S)-3-cyclopentyl-1-((R)-2-methyloxiran-2-yl)-1-oxopropan-2-yl)-2-((S)-2-cyclopropyl-2-(2-morpholinoacetamido)acetamido)-3-(4-methoxyphenyl)propanamide], the concentration in solution (solubility) was 200 µg/mL (≈ 334 µM). Then `C[C@H](NC(=O)CN1CCOCC1)C(=O)N[C@@H](Cc1ccc2c(c1)CNC(=O)O2)C(=O)N[C@@H](CC1CCCC1)C(=O)[C@@]1(C)CO1` [Compound C-1108, (S)-N-((S)-3-cyclopentyl-1-((R)-2-methyloxiran-2-yl)-1-oxopropan-2-yl)-2-((S)-2-(2-morpholinoacetamido)propanamido)-3-(2-oxo-3,4-dihydro-2H-benzo[e][1,3]oxazin-6-yl)propanamide], with 4730 µg/mL (≈ 7710 µM); and `COc1ccc(C[C@H](NC(=O)[C@@H](C)NC(=O)[C@]2(C)CC[C@@H](O)CC2)C(=O)N[C@@H](CC2=CCCC2)C(=O)[C@@]2(C)CO2)cc1` [Compound C-1111, (1r,4R)-N-((R)-1-(((S)-1-(((S)-3-(Cyclopent-1-en-1-yl)-1-((R)-2-methyloxiran-2-yl)-1-oxopropan-2-yl)amino)-3-(4-methoxyphenyl)-1-oxopropan-2-yl)amino)-1-oxopropan-2-yl)-4-hydroxy-1-methylcyclohexanecarboxamide], with 1070 µg/mL (≈ 1840 µM). Turning to `COc1ccc(C[C@H](NC(=O)[C@@H](C)NC(=O)[C@]2(C)CC[C@H](O)CC2)C(=O)N[C@@H](CC2=CCCC2)C(=O)[C@@]2(C)CO2)cc1` [Compound C-1112, (1s,4S)-N-((R)-1-(((S)-1-(((S)-3-(cyclopent-1-en-1-yl)-1-((R)-2-methyloxiran-2-yl)-1-oxopropan-2-yl)amino)-3-(4-methoxyphenyl)-1-oxopropan-2-yl)amino)-1-oxopropan-2-yl)-4-hydroxy-1-methylcyclohexanecarboxamide], the concentration in solution (solubility) came to 1110 µg/mL (≈ 1910 µM). The solubility values of the last two molecules are within 1.5-fold of each other.

With `C[C@H](NC(=O)CN1CCOCC1)C(=O)N[C@@H](Cc1ccc(O)cc1)C(=O)N[C@@H](CC1CCCC1)C(=O)[C@@]1(C)CO1` [Compound C-1113, (S)-N-((S)-3-cyclopentyl-1-((R)-2-methyloxiran-2-yl)-1-oxopropan-2-yl)-3-(4-hydroxyphenyl)-2-((S)-2-(2-morpholinoacetamido)propanamido)propanamide], the solubility turned out to be 3790 µg/mL (≈ 6780 µM).

`C[C@H](NC(=O)CN1CCOCC1)C(=O)N[C@@H](Cc1cccc(O)c1)C(=O)N[C@@H](CC1CCCC1)C(=O)[C@@]1(C)CO1` [Compound C-1114, (S)-N-((S)-3-cyclopentyl-1-((R)-2-methyloxiran-2-yl)-1-oxopropan-2-yl)-3-(3-hydroxyphenyl)-2-((S)-2-(2-morpholinoacetamido)propanamido)propanamide] showed a solubility of 793 µg/mL (≈ 1420 µM). Then `COc1ccc(C[C@H](NC(=O)[C@H](C)NC(=O)CN2CCS(=O)(=O)CC2)C(=O)N[C@@H](CC2=CCCC2)C(=O)[C@@]2(C)CO2)cc1` [Compound C-1115, (S)-N-((S)-3-(cyclopent-1-en-1-yl)-1-((R)-2-methyloxiran-2-yl)-1-oxopropan-2-yl)-2-((S)-2-(2-(1,1-dioxidothiomorpholino)acetamido)propanamido)-3-(4-methoxyphenyl)propanamide], with 496 µg/mL (≈ 801 µM). Then `COc1ccc(C[C@H](NC(=O)[C@H](C)NC(=O)CN2CCNC(=O)C2)C(=O)N[C@@H](CC2=CCCC2)C(=O)[C@@]2(C)CO2)cc1` [Compound C-1120, (S)-N-((S)-3-(cyclopent-1-en-1-yl)-1-((R)-2-methyloxiran-2-yl)-1-oxopropan-2-yl)-3-(4-methoxyphenyl)-2-((S)-2-(2-(3-oxopiperazin-1-yl)acetamido)propanamido)propanamide], with 8000 µg/mL (≈ 13700 µM). Regarding `COc1ccc(C[C@H](NC(=O)[C@H](C)NC(=O)CN2CCC(C)(O)CC2)C(=O)N[C@@H](CC2=CCCC2)C(=O)[C@@]2(C)CO2)cc1` [Compound C-1121, (S)-N-((S)-3-(cyclopent-1-en-1-yl)-1-((R)-2-methyloxiran-2-yl)-1-oxopropan-2-yl)-2-((S)-2-(2-(4-hydroxy-4-methylpiperidin-1-yl)acetamido)propanamido)-3-(4-methoxyphenyl)propanamide], the solubility turned out to be 287 µg/mL (≈ 479 µM). Molecule `COc1ccc(C[C@H](NC(=O)[C@H](C)NC(=O)CN2CCOCC2)C(=O)N[C@@H](CC2=CC(C)CC2)C(=O)[C@@]2(C)CO2)cc1` (stereo partly drawn) [Compound C-1122, (2S)-3-(4-methoxyphenyl)-N-((2S)-3-(3-methylcyclopent-1-en-1-yl)-1-((R)-2-methyloxiran-2-yl)-1-oxopropan-2-yl)-2-((S)-2-(2-morpholinoacetamido)propanamido)propanamide] had a solubility of 1830 µg/mL (≈ 3120 µM). `C[C@H](NC(=O)CN1CCOCC1)C(=O)N[C@@H](Cc1ccc2[nH]ccc2c1)C(=O)N[C@@H](CC1CCCC1)C(=O)[C@@]1(C)CO1` [Compound C-1123, (S)-N-((S)-3-cyclopentyl-1-((R)-2-methyloxiran-2-yl)-1-oxopropan-2-yl)-3-(1H-indol-5-yl)-2-((S)-2-(2-morpholinoacetamido)propanamido)propanamide] came in with a solubility of 1470 µg/mL (≈ 2520 µM). The same measure for `C[C@H](NC(=O)CN1CCOCC1)C(=O)N[C@@H](Cc1ccc2cc[nH]c2c1)C(=O)N[C@@H](CC1CCCC1)C(=O)[C@@]1(C)CO1` [Compound C-1124, (S)-N-((S)-3-cyclopentyl-1-((R)-2-methyloxiran-2-yl)-1-oxopropan-2-yl)-3-(1H-indol-6-yl)-2-((S)-2-(2-morpholinoacetamido)propanamido)propanamide]: 56.5 µg/mL (≈ 97.1 µM). The same measure for `C[C@H](NC(=O)CN1CCOCC1)C(=O)N[C@@H](Cc1ccc(S(C)(=O)=O)cc1)C(=O)N[C@@H](CC1=CCCCC1)C(=O)[C@@]1(C)CO1` [Compound C-1126, (S)-N-((S)-3-(cyclohex-1-en-1-yl)-1-((R)-2-methyloxiran-2-yl)-1-oxopropan-2-yl)-3-(4-(methylsulfonyl)phenyl)-2-((S)-2-(2-morpholinoacetamido)propanamido)propanamide]: 7280 µg/mL (≈ 11500 µM). With `C[C@H](NC(=O)CN1CCOCC1)C(=O)N[C@@H](CCc1ccccc1)C(=O)N[C@@H](CC1=CCCC1)C(=O)[C@@]1(C)CO1` [Compound C-1128, (S)-N-((S)-3-(Cyclopent-1-en-1-yl)-1-((R)-2-methyloxiran-2-yl)-1-oxopropan-2-yl)-2-((S)-2-(2-morpholinoacetamido)propanamido)-4-phenylbutanamide], the concentration in solution (solubility) came to 1370 µg/mL (≈ 2470 µM). The same measure for `Cc1ccc(C[C@H](NC(=O)[C@H](C)NC(=O)CN2CCOCC2)C(=O)N[C@@H](CC2=CCCCC2)C(=O)[C@@]2(C)CO2)cc1O` [Compound C-1130, (S)-N-((S)-3-(cyclohex-1-en-1-yl)-1-((R)-2-methyloxiran-2-yl)-1-oxopropan-2-yl)-3-(3-hydroxy-4-methylphenyl)-2-((S)-2-(2-morpholinoacetamido)propanamido)propanamide]: 1140 µg/mL (≈ 1950 µM); for `Cc1cc(C[C@H](NC(=O)[C@H](C)NC(=O)CN2CCOCC2)C(=O)N[C@@H](CC2=CCCC2)C(=O)[C@@]2(C)CO2)ccc1O` [Compound C-1131, (S)-N-((S)-3-(cyclopent-1-en-1-yl)-1-((R)-2-methyloxiran-2-yl)-1-oxopropan-2-yl)-3-(4-hydroxy-3-methylphenyl)-2-((S)-2-(2-morpholinoacetamido)propanamido)propanamide]: 1700 µg/mL (≈ 2980 µM); for `COc1ccc(C[C@H](NC(=O)[C@@H](NC(=O)CN2CCOCC2)C(F)(F)F)C(=O)N[C@@H](CC2=CCCC2)C(=O)[C@@]2(C)CO2)cc1` [Compound C-1132, (R)-N-((S)-1-(((S)-3-(cyclopent-1-en-1-yl)-1-((R)-2-methyloxiran-2-yl)-1-oxopropan-2-yl)amino)-3-(4-methoxyphenyl)-1-oxopropan-2-yl)-3,3,3-trifluoro-2-(2-morpholinoacetamido)propanamide]: 159 µg/mL (≈ 254 µM). For the molecule `C[C@H](NC(=O)CN1CCOCC1)C(=O)N[C@@H](Cc1ccn(C)c(=O)c1)C(=O)N[C@@H](CC1=CCCC1)C(=O)[C@@]1(C)CO1` [Compound C-1137, (S)-N-((S)-3-(cyclopent-1-en-1-yl)-1-((R)-2-methyloxiran-2-yl)-1-oxopropan-2-yl)-3-(1-methyl-2-oxo-1,2-dihydropyridin-4-yl)-2-((S)-2-(2-morpholinoacetamido)propanamido)propanamide], the solubility is over 10000 µg/mL. The same measure for `C#CC[C@H](NC(=O)CN1CCOCC1)C(=O)N[C@@H](Cc1ccc(OC)cc1)C(=O)N[C@@H](CC1=CCCC1)C(=O)[C@@]1(C)CO1` [Compound C-1139, (S)-N-((S)-1-(((S)-3-(Cyclopent-1-en-1-yl)-1-((R)-2-methyloxiran-2-yl)-1-oxopropan-2-yl)amino)-3-(4-methoxyphenyl)-1-oxopropan-2-yl)-2-(2-morpholinoacetamido)pent-4-ynamide]: 172 µg/mL (≈ 289 µM); for `COc1ccc(C[C@H](NC(=O)[C@H](C)NC(=O)CN2CCOCC2)C(=O)N[C@@H](CC2=CCCC2)C(=O)[C@@]2(C)CO2)cn1` [Compound C-1140, (S)-N-((S)-3-(cyclopent-1-en-1-yl)-1-((R)-2-methyloxiran-2-yl)-1-oxopropan-2-yl)-3-(6-methoxypyridin-3-yl)-2-((S)-2-(2-morpholinoacetamido)propanamido)propanamide]: over 10000 µg/mL. Then `COc1cc(C[C@H](NC(=O)[C@H](C)NC(=O)CN2CCOCC2)C(=O)N[C@@H](CC2=CCCC2)C(=O)[C@@]2(C)CO2)ccn1` [Compound C-1141, (S)-N-((S)-3-(Cyclopent-1-en-1-yl)-1-((R)-2-methyloxiran-2-yl)-1-oxopropan-2-yl)-3-(2-methoxypyridin-4-yl)-2-((S)-2-(2-morpholinoacetamido)propanamido)propanamide], with 9010 µg/mL (≈ 15800 µM).
